Results on two compounds are retold here after publication PMC11843629, “Development of ketobenzothiazole-based peptidomimetic TMPRSS13 inhibitors with low nanomolar potency” (Journal of Enzyme Inhibition and Medicinal Chemistry, 2025).

SMILES strings stand for the structures.

The target of data set [1] is T1, Factor Xa (Homo sapiens, UniProt P00742).
T1 construct: purchased R&D Systems
Put plainly: In vitro inhibition assay, Factor Xa, Boc-QAR-AMC. The data set is classed as biochemical. The conditions noted are these: Cheng-Prusoff equation. As to the method: (§1) Recombinant TMPRSS13-AFAAS-6His (this study) and matriptase[34] were expressed and purified as described. Recombinant human furin, Factor Xa (R&D Systems) and thrombin (MilliporeSigma) were obtained from commercial sources. Assays were performed in a buffer composed of 50 mM HEPES pH 7.4, 1 mM β-mercaptoethanol, 1 mM CaCl2 and 500 μg/ml BSA for furin and 50 mM HEPES pH 7.4, 150 mM NaCl and 0.1% BSA for other proteases. Assays were performed at room temperature using fluorogenic substrates (Boc-RVRR-AMC for furin and TMPRSS13, Boc-QAR-AMC for other proteases). The enzymatic activity was measured via fluorescence (excitation at 360 nm and emission at 460 nm) at room temperature using an HTX Synergy microplate reader (Agilent). Kis for TMPRSS13 and Factor Xa (FXa) were derived from IC50 dose–response curves using the Cheng-Prusoff equation[35] for reversible competitive inhibitors. For matripase, a plot of the enzyme velocity as a function of the inhibitor concentration was fitted with nonlinear regression analysis via the Morrison Ki equation[36] for competitive tight-binding inhibitors.

For data set [2], the target named is T2, TMPRSS13 (Homo sapiens, UniProt Q9BYE2, K566A/R563A/R565A).
T2 construct: Shedding of the TMPRSS13 catalytic domain was detected for both constructs in the cell media; made in house; host or cells: Expi293F cells
T2 sequence (Q9BYE2 with tags, fused parts or gaps isoform Q9BYE2-6 limits assumed): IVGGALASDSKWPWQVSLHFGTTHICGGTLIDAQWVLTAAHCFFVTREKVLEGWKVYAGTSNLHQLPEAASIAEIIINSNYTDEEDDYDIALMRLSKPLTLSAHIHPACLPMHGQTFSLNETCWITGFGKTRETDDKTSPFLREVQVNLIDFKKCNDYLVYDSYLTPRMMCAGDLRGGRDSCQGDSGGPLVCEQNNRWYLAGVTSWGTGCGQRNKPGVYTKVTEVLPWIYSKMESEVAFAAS
Nature of the data set: In vitro inhibition assay, recombinant TMPRSS13-AFAAS-6His, Boc-RVRR-AMC. It is filed as biochemical. The conditions noted are these: dose-response curve, Cheng-Prusoff equation. The procedure: TMPRSS13-AFAAS-6His was expressed via the Expi293 Expression System Kit (Thermo Fisher Scientific, A14635) according to the manufacturer’s instructions and purified via IMAC chromatography. Briefly, Expi293F cells were transfected for 48 h with the TMPRSS13-AFAAS-6His construct, and media containing the shed recombinant protease was injected on a HisTrap Excel column (Cytiva, 17371206) via an ÄKTA Start protein purification system (Cytiva). The bound proteins were then eluted (20 mM sodium phosphate pH 7.4, 500 mM NaCl, and 500 mM imidazole), and the TMPRSS13-containing fractions were dialysed for 16 h at 4 °C in storage buffer (20 mM sodium phosphate pH 7.4, 150 mM NaCl, and 10% glycerol). Proteins were then concentrated via a 10 kDa Amicon Ultra centrifugal filter (Millipore Sigma, UFC8010) and stored at −80 °C.
as §1

The nature of data set [3]: in vitro. The conditions noted are these: final conc. 0.2 mM, 37 °C; for half-life at 0.2 mM: male, Sprague-Dawley, rat, pooled rat plasma (K2EDTA), Mean half-life, Plasma. An excerpt: Adult male Sprague-Dawley rats, weighing between 225 and 300 g (Charles River Laboratories, St. Constant, Canada), were housed in groups of four per double-decker cage on Aspen shavings in a quiet environment. They were maintained under a 12-h light/dark cycle with unrestricted access to food and water. All experimental protocols received approval from the Animal Care Committee of the Université de Sherbrooke, adhering to the Canadian Council on Animal Care guidelines. The procedures also followed the ARRIVE guidelines (Animals in Research: Reporting In Vivo Experiments) and the United States NIH regulations (Ethics approval ID: 2022–3440). To evaluate the stability of compounds in plasma, 6 rats were anaesthetised with 2 L/min oxygen and 5% isoflurane, after which plasma was collected, pooled, and stored frozen until experiments were performed.
For evaluating plasma stability, rats were anaesthetised using a flow of 2 L/min of oxygen combined with 5% isoflurane. Blood was obtained via cardiac puncture from the left ventricle using a 20 G ½ needle, collected in pre-chilled Vacutainer K2EDTA tubes (367861), and maintained on wet ice. The blood was then centrifuged at 2000 xG for 15 min at 4 °C. Plasma samples were pooled from six rats, aliquoted, and stored at −80 °C. […] To terminate the reaction, 140 μL of a 1:1 acetonitrile-ethanol solution containing 0.25 mM N,N-dimethylbenzamide (used as an internal standard) was added. The resulting mixture was transferred onto an Impact Protein Precipitation filter plate (Phenomenex, California), with a 96-well UPLC plate positioned below to collect the filtrates. Both plates were centrifuged at 500 × g for 10 min at 4 °C. The filtrates were diluted with 30 μL of distilled water before analysis using an Acquity UPLC-MS system class H (column Acquity UPLC protein BEH C18 (2.1 mm × 50 mm), 1.7 μm particles, 130 Å pore size). The peptide’s half-life was determined from the degradation profile utilising the exponential one-phase decay function in GraphPad Prism 9. Mass spectra obtained at time points close to the calculated half-life were compared with those at 0 min (plasma inactivated prior to compound addition) to identify cleavage fragments.

Data set [4] concerns human trypsin. Nature of the data set: Proteolysis assay (stability) with human trypsin. It is filed as in vitro ADME. The settings on record: human trypsin (isolated protease), pH 7.4, compound final conc. 10 µM, 37 °C. As to the method: For the proteolysis assay, human trypsin (#T6424, Sigma–Aldrich, Saint-Louis, Missouri, USA) was resuspended in 1 mM HCl and 20 mM CaCl2, pH 3, and diluted to a final concentration of 0.1 mg/ml in PBS buffer (pH 7.4, 10 mM PO43-, 150 mM NaCl). The control peptide R8 and the compounds of interest were added to a 96-well plate (37 °C) to a final concentration of 10 µM. Trypsin (0.1 µg/ml) was added to the wells for 0, 0.5, 1, 2, 4 and 6 h. The plate was quenched with AcN/EtOH (1:1) 1% formic acid and 0.25 mM N,N-dimethylbenzamide (IS) and centrifuged at 4 °C.

T1 sequence (P00742 235-488 limits assumed): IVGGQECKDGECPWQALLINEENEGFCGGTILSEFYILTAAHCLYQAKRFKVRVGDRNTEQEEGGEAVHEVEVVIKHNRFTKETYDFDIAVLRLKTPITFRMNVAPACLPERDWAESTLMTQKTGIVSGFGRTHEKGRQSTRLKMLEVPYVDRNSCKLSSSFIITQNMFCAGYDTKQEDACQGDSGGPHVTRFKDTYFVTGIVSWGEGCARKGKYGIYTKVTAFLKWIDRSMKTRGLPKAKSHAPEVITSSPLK
T1 sequence (P00742 41-179 partner limits assumed): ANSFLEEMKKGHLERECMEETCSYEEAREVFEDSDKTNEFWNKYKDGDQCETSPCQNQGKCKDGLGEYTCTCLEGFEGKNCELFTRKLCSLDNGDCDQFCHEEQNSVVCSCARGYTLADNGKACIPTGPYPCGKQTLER

As for `N=C(N)NCCCCC(=O)N[C@@H](CCC(N)=O)C(=O)N[C@@H](Cc1ccccc1)C(=O)N[C@@H](CCCNC(=N)N)C(=O)c1nc2ccccc2s1` [Compound N-0130, (H)-RQFR-Kbt], the values for the Ki in data set [1] and in data set [2] were 48.2 ± 3.7 nM and 24.6 nM, respectively. This compound showed a half-life at 0.2 mM in data set [3] of 79.2 h. For the same compound, the “Mean half-life, Plasma” value in data set [3] (rat plasma (male)) was 78.5 h. In data set [4], the half-life at 10 µM is 105 h.

Consider `N=C(N)NCCCCC(=O)N[C@@H](CCC(N)=O)C(=O)N[C@@H](CCc1ccccc1)C(=O)N[C@@H](CCCNC(=N)N)C(=O)c1nc2ccccc2s1` [Compound N-0430, (H)-RQhFR-Kbt], for which the Ki came to 56.9 ± 9 nM in data set [1] and 5.3 nM in data set [2]. Moreover, the half-life at 0.2 mM in data set [3] is 40.8 h. In data set [4], this compound had a half-life at 10 µM of 29.5 h.

As usually defined, the Ki is the equilibrium dissociation constant of an inhibitor or competing ligand from its target. As usually defined, the half-life is the time needed for the level to fall by half in the phase considered. A low value points to rapid decline.
